Where two headings read alike, the source gives them in different places.
Legend:
[1] = tested on: T-Rex 293 cell line SC3 cells having increased expression of androgen receptor protein due to exposure to doxycycline; assay: Cellular growth inhibition assay, T-Rex 293 SC3 cells with doxycycline (CellTiter-Glo, 72 hours); assay type: cell-based; details: T-Rex 293 SC3 cells with increased androgen receptor expression due to doxycycline (10 ng/mL)
How it was run: (§1)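 Growth inhibition is measured in an inducible AR-expressing T-Rex 293 clone, SC3, cultured with or without 10 ng/mL doxycycline in hormone-depleted medium. Test compounds are applied for 72 hours. GI50 values derive from CellTiter-Glo 2.0 signal fitted by four-parameter regression.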

[2] = tested on: T-Rex 293 cell line SC3 cells lacking increased expression of androgen receptor protein; assay: Cellular growth inhibition assay, T-Rex 293 SC3 cells without doxycycline (CellTiter-Glo, 72 hours); assay type: cell-based; details: T-Rex 293 cell line SC3 cells not exposed to doxycycline (lacking increased androgen receptor expression)
How it was run: as §1

VCaP cells = assay: Cellular growth inhibition assay for VCaP cells (CellTiter-Glo, 72 hours); assay type: cell-based, human
How it was run: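 Luminescent viability signal after 72 h of compound exposure gave GI50 values by four-parameter nonlinear regression. Compounds were added in 0.5% DMSO to cells plated 24 h earlier at 5000/well in DMEM containing 10% FBS.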

**Q.** How did the GI50 ([1]; 72 h) turn out when Cc1sc2c(c1C)C(c1ccc(C#CC3CCC(Cc4ccc(C(=O)N[C@H]5CC[C@H](Oc6ccc(C#N)c(Cl)c6)CC5)nn4)CC3)cc1)=N[C@@H](Cc1ncco1)c1nnc(C)n1-2 (stereo partly drawn) [I-546] was run?
**A.** < 0.5 µM

**Q.** What about the GI50 ([2]; 72 h) of the same molecule?
**A.** < 0.5 µM

**Q.** And the GI50 (VCaP cells; Homo sapiens, VCaP, 72 h)?
**A.** 0.5 to 1.5 µM

**Q.** What does the source list for Cc1sc2c(c1C)C(c1ccc(NCC3(F)CCN(c4ncc(C(=O)N[C@H]5CC[C@H](Oc6ccc(C#N)c(Cl)c6)CC5)cn4)CC3)cc1)=NC(Cc1ncco1)c1nnc(C)n1-2 (stereo partly drawn) [I-784]?
**A.** GI50 ([1]; 72 h): < 0.5 µM; GI50 ([2]; 72 h): < 0.5 µM; GI50 (VCaP cells; Homo sapiens, VCaP, 72 h): < 0.5 µM

**Q.** Which GI50 [1] does the source give for Cc1sc2c(c1C)C(c1ccc(OC3CC(CC4CCN(c5ccc(C(=O)N[C@H]6CC[C@H](Oc7ccc(C#N)c(Cl)c7)CC6)nn5)CC4)C3)cc1)=NC1(CC1)c1nnc(C)n1-2 (stereo partly drawn) [I-529] here?
**A.** < 0.5 µM

**Q.** And the GI50 [2]?
**A.** > 3 µM

**Q.** What about the GI50 (VCaP cells) of the same molecule?
**A.** < 0.5 µM

**Q.** How did the GI50 [1] turn out when Cc1sc2c(c1C)C(c1ccc(OCC3CCC4(CCCN(c5ccc(C(=O)N[C@H]6CC[C@H](Oc7ccc(C#N)c(Cl)c7)CC6)nn5)C4)C3)cc1)=N[C@@H](C)c1nnc(C)n1-2 (stereo partly drawn) [I-627] was run?
**A.** < 0.5 µM

**Q.** What about the GI50 [2] of the same molecule?
**A.** < 0.5 µM

**Q.** What about the GI50 (VCaP cells) of the same molecule?
**A.** < 0.5 µM

**Q.** For Cc1sc2c(c1C)C(c1ccc(CCC3CC4(CCCN(c5ccc(C(=O)N[C@H]6CC[C@H](Oc7ccc(C#N)c(Cl)c7)CC6)nn5)C4)C3)cc1)=NCc1nnc(C)n1-2 (stereo partly drawn) [I-548], which GI50 ([1]; 72 h) is on record?
**A.** < 0.5 µM

**Q.** What about the GI50 ([2]; 72 h) of the same molecule?
**A.** < 0.5 µM

**Q.** And the GI50 (VCaP cells; Homo sapiens, VCaP, 72 h)?
**A.** 1.5 to 3 µM

**Q.** Cc1sc2c(c1C)C(c1ccc(NCC3CCN(c4ncc(C(=O)N[C@H]5CC[C@H](Oc6ccc(C#N)c(Cl)c6)CC5)cn4)CC3)cc1)=NC(Cc1ncco1)c1nnc(C)n1-2 (stereo partly drawn) [I-786] was tested. Which GI50 ([1]; 72 h) did it give?
**A.** < 0.5 µM

**Q.** And the GI50 ([2]; 72 h)?
**A.** < 0.5 µM

**Q.** And the GI50 (VCaP cells; Homo sapiens, VCaP, 72 h)?
**A.** < 0.5 µM

**Q.** With CC[C@@H]1N=C(c2ccc(N3CC4(CC(CCc5ccc(C(=O)N[C@H]6CC[C@H](Oc7ccc(C#N)c(Cl)c7)CC6)nn5)C4)C3)cc2)c2c(sc(C)c2C)-n2c(C)nnc21 [I-611] as the molecule, how does the GI50 ([1]; 72 h) read?
**A.** < 0.5 µM

**Q.** And the GI50 ([2]; 72 h)?
**A.** > 3 µM

**Q.** And the GI50 (VCaP cells; Homo sapiens, VCaP, 72 h)?
**A.** < 0.5 µM

**Q.** Which GI50 [1] does the source give for Cc1sc2c(c1C)C(c1ccc(OCC3CCC4(CCCN(c5ccc(C(=O)N[C@H]6CC[C@H](Oc7ccc(C#N)c(Cl)c7)CC6)nn5)C4)C3)cc1)=N[C@@H](C)c1nnc(C)n1-2 (stereo partly drawn) [I-637] here?
**A.** < 0.5 µM

**Q.** And the GI50 [2]?
**A.** < 0.5 µM

**Q.** What about the GI50 (VCaP cells) of the same molecule?
**A.** < 0.5 µM

**Q.** How did the GI50 ([1]; 72 h) turn out when Cc1sc2c(c1C)C(c1ccc(C3CC(N4CCN(c5ccc(C(=O)N[C@H]6CC[C@H](Oc7ccc(C#N)c(Cl)c7)CC6)nn5)CC4)C3)cc1)=NC1(CC1)c1nnc(C)n1-2 (stereo partly drawn) [I-573] was run?
**A.** < 0.5 µM

**Q.** What about the GI50 ([2]; 72 h) of the same molecule?
**A.** < 0.5 µM

**Q.** And the GI50 (VCaP cells; Homo sapiens, VCaP, 72 h)?
**A.** < 0.5 µM

**Q.** How did the GI50 ([1]; 72 h) turn out when Cc1sc2c(c1C)C(c1cccc(N3CC4(CCCN(c5ccc(C(=O)N[C@H]6CC[C@H](Oc7ccc(C#N)c(Cl)c7)CC6)nn5)C4)C3)c1)=N[C@@H](C)c1nnc(C)n1-2 [I-710] was run?
**A.** < 0.5 µM

**Q.** And the GI50 ([2]; 72 h)?
**A.** > 3 µM

**Q.** And the GI50 (VCaP cells; Homo sapiens, VCaP, 72 h)?
**A.** > 3 µM

**Q.** With Cc1sc2c(c1C)C(c1ccc(C3CCC4(CCN(c5ccc(C(=O)N[C@H]6CC[C@H](Oc7ccc(C#N)c(Cl)c7)CC6)nn5)C4)C3)cc1)=N[C@@H](C)c1nnc(C)n1-2 (stereo partly drawn) [I-821, N-[4-(3-chloro-4-cyano-phenoxy)cyclohexyl]-6-[8-[4-[(9S)-4,5,9,13-tetramethyl-3-thia-1,8,11,12-tetrazatricyclo[8.3.0.02,6]trideca-2(6),4,7,10,12-pentaen-7-yl]phenyl]-2-azaspiro[4.4]nonan-2-yl]pyridazine-3-carboxamide] as the molecule, how does the GI50 ([1]; 72 h) read?
**A.** < 0.5 µM

**Q.** What about the GI50 ([2]; 72 h) of the same molecule?
**A.** < 0.5 µM

**Q.** What about the GI50 (VCaP cells; Homo sapiens, VCaP, 72 h) of the same molecule?
**A.** < 0.5 µM

**Q.** Which GI50 ([1]; 72 h) does the source give for Cc1sc2c(c1C)C(c1ccc(CC3CC4(CCCN(c5ccc(C(=O)N[C@H]6CC[C@H](Oc7ccc(C#N)c(Cl)c7)CC6)nn5)C4)C3)cc1)=NCc1nnc(C)n1-2 (stereo partly drawn) [I-474] here?
**A.** < 0.5 µM

**Q.** What about the GI50 [2] of the same molecule?
**A.** > 3 µM

**Q.** What about the GI50 (VCaP cells) of the same molecule?
**A.** > 3 µM

**Q.** How did the GI50 [1] turn out when Cc1sc2c(c1C)C(c1ccc(OCC3CC4(CCCN(c5ccc(C(=O)N[C@H]6CC[C@H](Oc7ccc(C#N)c(Cl)c7)CC6)nn5)C4)C3)cc1)=NCc1nnc(C)n1-2 (stereo partly drawn) [I-489] was run?
**A.** < 0.5 µM

**Q.** What about the GI50 [2] of the same molecule?
**A.** > 3 µM

**Q.** And the GI50 (VCaP cells)?
**A.** < 0.5 µM

**Q.** How did the GI50 [1] turn out when Cc1sc2c(c1C)C(c1cccc(N3CCC4(CCN(c5ccc(C(=O)N[C@H]6CC[C@H](Oc7ccc(C#N)c(Cl)c7)CC6)nn5)C4)C3)c1)=N[C@@H](C)c1nnc(C)n1-2 (stereo partly drawn) [I-708] was run?
**A.** < 0.5 µM

**Q.** What about the GI50 [2] of the same molecule?
**A.** 1.5 to 3 µM

**Q.** What about the GI50 (VCaP cells) of the same molecule?
**A.** < 0.5 µM

Reference: patent US20260109707A1, “HETEROBIFUNCTIONAL COMPOUNDS AND METHODS OF TREATING DISEASE” (Halda Therapeutics OpCo. Inc., priority 2022, published 2026)
